Experimental data taken from patent US20050209104A1, “Dinoflagellate karlotoxins, methods of isolation and uses thereof” (priority 2002, published 2005).

Experiments:
[1] = test system: rainbow trout erythrocytes; test: Osmotic protection assay; assay type: cell-based; settings: 30 mM osmolyte, even at 1 μg/ml KmTx 2
Protocol: The following osmolytes (all purchased from Sigma-Aldrich Co., St Louis, Mo.) were prepared as 30 mM solutions using the Tris buFFer +CaCl2: sucrose (MW 342.3), polyethylene glycol (MW 400), polyethylene glycol (MW 600), maltohexaose (MW 990.0), polyethylene glycol (MW 8,000), dextran (MW 10,000). Osmolarity of each solution was measured using a Vapro 5520 vapor pressure osmometer (Wescor Inc., Logan Utah). […] The osmolarities of PEG 8,000 and 10,000 MW dextran were approximately double this amount (ca. 640 mOsm).
Assays were performed by preparing trout erythrocyte suspensions and toxin dilutions (0, 0.25 0.5, and 1 μg/ml) in the appropriate osmolyte solution and performing the hemolysis assay as described in supplemental materials.

[2] = test system: Oxyrrhis marina; test: Effect of KmTx 2 on a potential grazer; assay type: cell-based
Protocol: Oxyrrhis marina (1.7×10^4 cells/mil) and K. micrum (CCMP 2282) (3.5×10^4 cells/ml) were exposed, in triplicate, to 0, 0.1, 0.5, and 1 μg/ml KmTx 2 in six well non-tissue culture treated polystyrene plates (Becton Dickinson Labware, Lincoln Park N.J.). The O. marina culture was obtained through single cell isolation from a Chesapeake Bay water sample and was maintained in 15 psu artificial sea water (Instant Ocean Brand) using Rhodomonas sp. (CCMP 767) as a food source. O. marina was starved for 24 hours prior to exposures to reduce the number of food organisms. K. micrum (CCMP 2282) was maintained in 12 psu artificial sea water (Instant Ocean Brand) with f/2 nutrient mixture plus 1% soil extract as described in Deeds et al. (2002). Cell densities were measured at 1 and 24 hours using a Coulter Multisizer II particle counter by enumerating the 7-20 μm and the […] size fractions, respectively, for K. micrum and O. marina using a Coulter Accucomp software package (Coulter Electronics Limited, Miami Fla.). Significant differences (p<0.05) among mean cell numbers for different treatments were tested for using one-way analysis of variance with Scheffe's post hoc test using SPSS Base 10.0 statistical software (SPSS Inc., Chicago, Ill.).
Hemolytic activity remaining in solution was measured at 1 hour by mixing 100 μl of each treatment with an equal volume of diluted rainbow trout RBC suspension as described above in Example 3.

[3] = test system: rainbow trout erythrocytes
Protocol: The filtrate from water samples collected on Feb. […] Environmental water samples were allowed to thaw to room temperature and passed through a Sep-Pak Plus tC18 disposable cartridge (Waters Corp., Milford Mass.), attached to a vacuum manifold. The column was pre-equilibrated with methanol (20 ml) followed by H2O (20 ml). The cartridges were eluted with the following concentrations of MeOH/H2O: 100% H2O, 40%, 60%, 80%, and 100% MeOH (12 ml ea^−1). An aliquot of each elution was diluted, using Tris buffer +CaCl2, to give final dilutions ranging from 6 to 60% of original concentrations. […] The occurrence of hemolytic activity was determined by the absorbance of released hemoglobin, measured at 540 nm. Saponin (10 μg) served as a positive hemolysin control. Treatments were run in quadruplicate.
A hemolytic assay based on the lysis of fish erythrocytes was utilized to screen for bioactive materials. Cultures and culture fractions that were positive in the hemolytic assay were tested further using assays for ichthyotoxicity and cytotoxicity.
Blood was extracted from the caudal vein of rainbow trout (Oncorhynchus mykis) provided by the Center of Marine Biotechnology's Aquaculture Research Center. Needles were heparin (Sigma Chemical Co., St. Louis Mo.) treated and 10 units ml^−1 of additional heparin was added to whole blood samples to prevent clotting. […] Buffer pH was adjusted to 7.4 at 10° C. with 1N HCl, then filter sterilized (0.22 μm). […] Suspensions were stored at 4° C. for no longer than 10 days.
Hemolytic assays were performed by diluting test material in Tris buffer +CaCl2 (100 μl total) and adding this to a 5% erythrocyte suspension (100 μl). […] Assays were incubated on an orbital shaker (80-100 rpm) at 20° C. for 1 hour. Plates were then centrifuged at 2500 g for 5 min. and the supernatant (100 μl) was transferred to another flat bottom 96 well polystyrene plate, where the absorbance of released hemoglobin was read at 540 nm. Saponin (10 μg) (from Quillaja bark; Sigma Chemical Co., St. Louis Mo.) was used as a positive hemolysin control All treatments were run in quadruplicate.
LC50values and ranges were determined by Probit analysis (SPSS Base 10.0, SPSS Inc., Chicago Ill.).
Blood was extracted from the caudal vein of rainbow trout (Oncorhynchus mykis). […] Buffer pH was adjusted to 7.4 at 10° C. with 1N HCl, then filter sterilized (0.22 um). […] Blood suspensions were stored at 4° C. for no longer than 10 days.
Hemolysis assays were performed by diluting test material in Tris buFFer +CaCl2 (100 ul) and adding this to 100 ul of a 5% erythrocyte suspension for a total assay volume of 200 ul. […] Plates were incubated on an orbital shaker (80-100 rpm) at 20° C. for 1 hour. Plates were then centrifuged at 2000 g for 5 min. and the supernatant (100 ul) was transferred to a new flat bottom 96 well polystyrene plate, where the absorbance of released hemoglobin was read at 540 nm. Saponin (from Quillaja bark; Sigma Chemical Co., St. Louis Mo.) was used as a positive hemolysin control. Percent hemolysis (0-100%) was calculated from comparison to un-treated controls and samples treated with 10 ug saponin. All treatments were run in quadruplicate.
Hemolytic LC50 values were calculated from a dilution series of KmTx 2 and amphotericin B. LC50 values and ranges were determined by Probit analysis using a SPSS Base 10.0 statistical software package (SPSS Inc., Chicago, Ill.).

C=C(CC[C@H](O)[C@H]1O[C@H](C[C@@H](O)[C@H](O)[C@H](C)CCC[C@@H](O)[C@H](O)[C@H](O)[C@@H](C)CC[C@@H](O)[C@H](O)[C@H](C)C[C@@H](O)CCC[C@@H](O)CCC[C@@H](O)/C=C/C[C@@H](O)CO)[C@@H](O)[C@@H](O)[C@@H]1O)[C@H](O)[C@H](O)[C@@H]1C[C@H](O)[C@H](O)[C@@H]([C@H](O)[C@@H](O)/C=C/CCCCCCCC/C=C/C=C/Cl)O1 [KmTx 2]
molecular weight of inert osmolyte giving complete prevention of lysis [1]: > 8,000 Da
reduction of O. marina cell densities ([2]; 1 μg/ml, after 24 hours): > 90%
cell lysis of O. marina ([2]; 0.5 and 1 μg/ml treatments at 1 hour): significant (P<0.05) cell lysis
hemolytic activity remaining in solution ([2]; after 1 hour, all KmTx 2 concentrations, O. marina compared to K. micrum exposed cultures): reduced
hemolytic LC50 ([3]; probit analysis of dilution series): 0.368 µg/mL
hemolytic activity compared to amphotericin B ([3]; rainbow trout erythrocytes): ten fold higher
